Laboratory results: patent publication US7880007B2, “Bicyclic substituted phenyl piperidine modulators of muscarinic receptors” (Vertex Pharmaceuticals Incorporated, priority 2004, dated 2011)

Assays:
Assay type in all cases: cell-based
M4 muscarinic receptor = molecular target: T1, M4 muscarinic receptor (Homo sapiens, UniProt P08173); assay: Functional mobilization of intracellular calcium (FLIPR), M4-CHO cells; settings: for M4 Activity: M4-CHO cells, calcium mobilization (FLIPR)
T1 construct: expressed in transfected cells; host or cells: CHO (M4-CHO)
T1 sequence (P08173 1-479): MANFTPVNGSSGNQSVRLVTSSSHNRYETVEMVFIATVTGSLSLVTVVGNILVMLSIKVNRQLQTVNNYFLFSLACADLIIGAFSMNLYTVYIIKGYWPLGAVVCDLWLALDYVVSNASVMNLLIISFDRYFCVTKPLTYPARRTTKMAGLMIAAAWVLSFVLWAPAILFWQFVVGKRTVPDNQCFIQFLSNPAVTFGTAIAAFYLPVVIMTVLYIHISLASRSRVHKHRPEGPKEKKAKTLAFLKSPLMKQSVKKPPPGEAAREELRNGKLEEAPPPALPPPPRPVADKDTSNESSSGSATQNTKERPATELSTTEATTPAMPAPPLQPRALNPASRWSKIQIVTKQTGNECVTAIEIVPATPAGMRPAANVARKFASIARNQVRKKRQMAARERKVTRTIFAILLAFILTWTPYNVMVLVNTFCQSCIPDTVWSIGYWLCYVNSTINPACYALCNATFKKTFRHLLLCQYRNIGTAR
Procedure, shortened: (§1)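 Calcium mobilisation read by FLIPR over 60 s (ex 488/em 540 nm) in recombinant muscarinic CHO lines loaded with calcium dye plus 1 mM probenecid. Compounds tested as agonists alone, or as inhibitors against EC80 carbachol after 15 min pre-incubation or co-addition; 0.5% DMSO; efficacy scaled to carbachol maximal response.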

M2 muscarinic receptor = molecular target: T2, M2 muscarinic receptor (Homo sapiens, UniProt P08172); assay: Functional mobilization of intracellular calcium (FLIPR), M2-CHO cells; settings: for M2 Activity: M2-CHO cells, calcium mobilization (FLIPR)
T2 construct: expressed in transfected cells; host or cells: CHO (M2-CHO)
T2 sequence (P08172 1-466): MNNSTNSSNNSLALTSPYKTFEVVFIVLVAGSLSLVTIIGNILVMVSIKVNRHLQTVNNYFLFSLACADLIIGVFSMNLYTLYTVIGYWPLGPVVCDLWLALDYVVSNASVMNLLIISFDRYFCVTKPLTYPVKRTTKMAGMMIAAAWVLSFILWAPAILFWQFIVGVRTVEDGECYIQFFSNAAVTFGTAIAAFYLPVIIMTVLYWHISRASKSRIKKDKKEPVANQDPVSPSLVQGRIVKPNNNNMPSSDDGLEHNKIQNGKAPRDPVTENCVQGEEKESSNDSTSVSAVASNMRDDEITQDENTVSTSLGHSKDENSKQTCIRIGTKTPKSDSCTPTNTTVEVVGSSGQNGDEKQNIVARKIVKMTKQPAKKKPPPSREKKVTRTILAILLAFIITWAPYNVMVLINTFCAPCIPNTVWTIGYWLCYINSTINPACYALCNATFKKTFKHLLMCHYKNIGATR
Procedure, shortened: as §1

M1 muscarinic receptor = molecular target: T3, M1 muscarinic receptor (Homo sapiens, UniProt P11229); assay: Functional mobilization of intracellular calcium (FLIPR), M1-CHO cells; settings: for M1 Activity: M1-CHO cells, calcium mobilization (FLIPR)
T3 construct: expressed in transfected cells; host or cells: CHO (M1-CHO)
T3 sequence (P11229 1-460): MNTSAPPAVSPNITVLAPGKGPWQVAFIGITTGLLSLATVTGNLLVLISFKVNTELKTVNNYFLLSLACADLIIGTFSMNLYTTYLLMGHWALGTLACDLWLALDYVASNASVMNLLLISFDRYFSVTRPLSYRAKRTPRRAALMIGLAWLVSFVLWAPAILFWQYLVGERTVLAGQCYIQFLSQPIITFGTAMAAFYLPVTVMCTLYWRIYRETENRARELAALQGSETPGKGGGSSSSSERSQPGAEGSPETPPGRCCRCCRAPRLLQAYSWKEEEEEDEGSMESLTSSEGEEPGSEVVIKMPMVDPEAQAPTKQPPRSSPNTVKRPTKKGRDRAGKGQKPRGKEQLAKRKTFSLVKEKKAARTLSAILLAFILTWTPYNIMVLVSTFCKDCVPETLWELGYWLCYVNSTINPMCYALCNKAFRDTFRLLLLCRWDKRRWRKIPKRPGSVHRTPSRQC
Procedure, shortened: as §1

M3 muscarinic receptor = molecular target: T4, M3 muscarinic receptor (Homo sapiens, UniProt P20309); assay: Functional mobilization of intracellular calcium (FLIPR), M3-CHO cells; settings: for M3 Activity: M3-CHO cells, calcium mobilization (FLIPR)
T4 construct: expressed in transfected cells; host or cells: CHO (M3-CHO)
T4 sequence (P20309 whole entry): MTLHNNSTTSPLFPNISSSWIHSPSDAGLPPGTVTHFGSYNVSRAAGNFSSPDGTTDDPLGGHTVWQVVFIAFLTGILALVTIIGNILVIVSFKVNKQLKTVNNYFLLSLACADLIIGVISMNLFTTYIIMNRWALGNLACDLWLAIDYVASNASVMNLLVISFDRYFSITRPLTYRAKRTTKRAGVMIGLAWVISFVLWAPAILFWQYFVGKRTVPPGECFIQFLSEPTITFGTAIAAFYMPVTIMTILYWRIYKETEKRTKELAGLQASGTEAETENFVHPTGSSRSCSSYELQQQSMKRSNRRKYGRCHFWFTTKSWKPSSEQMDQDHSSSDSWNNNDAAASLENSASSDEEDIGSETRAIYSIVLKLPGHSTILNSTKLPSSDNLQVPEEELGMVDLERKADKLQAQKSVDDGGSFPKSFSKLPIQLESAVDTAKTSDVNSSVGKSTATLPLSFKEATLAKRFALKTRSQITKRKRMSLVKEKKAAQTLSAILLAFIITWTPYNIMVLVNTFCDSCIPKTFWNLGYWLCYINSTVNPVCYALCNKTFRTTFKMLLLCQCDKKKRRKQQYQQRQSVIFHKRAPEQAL
Procedure, shortened: as §1

[1] = 100% efficacy = maximum response obtained with the Carbachol control
[2] = 100% efficacy is the maximum response obtained with the Carbachol control

Row | Compound | Emax (M4 muscarinic receptor; [1]) | M4 Activity (M4 muscarinic receptor) | Emax (M2 muscarinic receptor; [1]) | M2 Activity (M2 muscarinic receptor) | Emax (M1 muscarinic receptor; [1]) | M1 Activity (M1 muscarinic receptor) | Emax (M3 muscarinic receptor; [1]) | M3 Activity (M3 muscarinic receptor) | Emax (M4 muscarinic receptor; [2]) | Emax (M2 muscarinic receptor; [2]) | Emax (M1 muscarinic receptor; [2]) | Emax (M3 muscarinic receptor; [2])
1 | COc1ccc(-c2ccccc2C#N)cc1C1CCN([C@@H]2C[C@H]3CC[C@H]2C3)CC1 [Compound 92] | < 25% | + (activity was measured to be greater than 5.0 μM) | < 25% | + (activity was measured to be greater than 5.0 μM) | < 25% | + (activity was measured to be greater than 5.0 μM) | < 25% | + (activity was measured to be greater than 5.0 μM) |  |  |  | 
2 | Cc1ccccc1C1CCN(C2CCOCC2)CC1 [Compound 281] | 25 to 100% | +++ (activity was measured to be less than 1.0 μM) | < 25% | + (activity was measured to be greater than 5.0 μM) | 25 to 100% | + (activity was measured to be greater than 5.0 μM) | < 25% | + (activity was measured to be greater than 5.0 μM) |  |  |  | 
3 | CCNC(=O)c1ccc(-c2ccc(OC)c(C3CCN([C@H]4C[C@H]5CC[C@H]4C5)CC3)c2)cc1 [Compound 84] | < 25% | + (activity was measured to be greater than 5.0 μM) | < 25% | + (activity was measured to be greater than 5.0 μM) | < 25% | + (activity was measured to be greater than 5.0 μM) | < 25% | + (activity was measured to be greater than 5.0 μM) |  |  |  | 
4 | COc1ccc(F)cc1C1(OC)CCN(CC2CCOCC2)CC1 [Compound 150] | 25 to 100% | + (activity was measured to be greater than 5.0 μM) | < 25% | + (activity was measured to be greater than 5.0 μM) | 25 to 100% | + (activity was measured to be greater than 5.0 μM) | < 25% | + (activity was measured to be greater than 5.0 μM) |  |  |  | 
5 | COc1ccccc1C1CCN(C2CCCC2)CC1 [Compound 15] | 25 to 100% | +++ (activity was measured to be less than 1.0 μM) | < 25% | + (activity was measured to be greater than 5.0 μM) | < 25% | + (activity was measured to be greater than 5.0 μM) | < 25% | + (activity was measured to be greater than 5.0 μM) |  |  |  | 
6 | CCOC(=O)N1CCC(N2CCC(c3cc(F)ccc3OC)CC2)CC1 [Compound 106] | 25 to 100% | +++ (activity was measured to be less than 1.0 μM) | 25 to 100% | +++ (activity was measured to be less than 1.0 μM) | 25 to 100% | +++ (activity was measured to be less than 1.0 μM) | < 25% | +++ (activity was measured to be less than 1.0 μM) |  |  |  | 
7 | COc1ccc(Cl)cc1C1CCN(C2CCSCC2)CC1 [Compound 376] |  | +++ (activity was measured to be less than 1.0 μM) |  | + (activity was measured to be greater than 5.0 μM) |  | ++ (activity was measured to be from 1.0 μM to 5.0 μM) |  | + (activity was measured to be greater than 5.0 μM) | 25 to 100% | < 25% | 25 to 100% | < 25%
8 | COc1ccc(F)cc1C1(F)CCN(CC2CCOCC2)CC1 [Compound 239] | 25 to 100% | ++ (activity was measured to be from 1.0 μM to 5.0 μM) | < 25% | + (activity was measured to be greater than 5.0 μM) | 25 to 100% | + (activity was measured to be greater than 5.0 μM) | < 25% | + (activity was measured to be greater than 5.0 μM) |  |  |  | 
9 | COc1ccc(F)cc1C1(F)CCN(C2CC3CCC(C3)C2)CC1 (stereo not shown) [Compound 40] | 25 to 100% | +++ (activity was measured to be less than 1.0 μM) | 25 to 100% | + (activity was measured to be greater than 5.0 μM) | 25 to 100% | ++ (activity was measured to be from 1.0 μM to 5.0 μM) | < 25% | + (activity was measured to be greater than 5.0 μM) |  |  |  | 
10 | CCOC(=O)N1CCC(CN2CCC(c3cc(F)ccc3OC)CC2)CC1 [Compound 39] | 25 to 100% | +++ (activity was measured to be less than 1.0 μM) | 25 to 100% | +++ (activity was measured to be less than 1.0 μM) | 25 to 100% | +++ (activity was measured to be less than 1.0 μM) | < 25% | + (activity was measured to be greater than 5.0 μM) |  |  |  | 
11 | Fc1ccccc1C1CCN(C2C[C@H]3CC[C@H]2C3)CC1 (stereo partly shown) [Compound 259] | 25 to 100% |  | < 25% |  | 25 to 100% |  | < 25% |  |  |  |  | 
12 | COc1ccc(-c2ccc(C#N)cc2)cc1C1CCN(C2CCOCC2)CC1 [Compound 352] | 25 to 100% | + (activity was measured to be greater than 5.0 μM) | < 25% | + (activity was measured to be greater than 5.0 μM) | 25 to 100% | + (activity was measured to be greater than 5.0 μM) | < 25% | + (activity was measured to be greater than 5.0 μM) |  |  |  | 
13 | O=C(COc1ccccc1C1CCN([C@H]2C[C@H]3CC[C@H]2C3)CC1)c1cccc(Cl)c1 [Compound 16] | 25 to 100% | ++ (activity was measured to be from 1.0 μM to 5.0 μM) | < 25% | + (activity was measured to be greater than 5.0 μM) | < 25% | + (activity was measured to be greater than 5.0 μM) | < 25% | + (activity was measured to be greater than 5.0 μM) |  |  |  | 
